Assay results as given in US9783509B2, “Six-membered C-N-linked aryl sulfide derivatives and aryl sulfoxide derivatives as pest conrol agents” (BAYER CROPSCIENCE AKTIENGESELLSCHAFT, priority 2013, dated 2017).
Read-outs that look alike come from different tables or passages of the source.

Key:
[1] = system: greenhouse red spider mite (Tetranychus urticae); assay: Tetranychus urticae spray test, OP-resistant (bean leaf discs); format: in vivo; conditions: after 6 days
Procedure, shortened: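 Compound dissolved in acetone/DMF and diluted in water with 1000 ppm alkylaryl polyglycol ether emulsifier, then sprayed on bean leaf discs infested with all stages of OP-resistant T. urticae. Mortality in % scored after 6 days (100% = all mites killed).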

[2] = system: larvae of the mustard beetle (Phaedon cochleariae); assay: Phaedon cochleariae spray test; format: in vivo; conditions: application rate 500 g/ha, after 7 days
Procedure: Phaedon cochleariae—Spray Test
Solvent: 78.0 parts by weight of acetone • • 1.5 parts by weight of dimethylformamide
(§1) Emulsifier: alkylaryl polyglycol ether
(§2) To produce an appropriate active ingredient formulation, 1 part by weight of active ingredient is dissolved using the specified parts by weight of solvent and made up with water containing an emulsifier concentration of 1000 ppm until the desired concentration is attained. To produce further test concentrations, the preparation is diluted with emulsifier-containing water.
Discs of Chinese cabbage leaves (Brassica pekinensis) are sprayed with an active ingredient formulation of the desired concentration and, after drying, populated with larvae of the mustard beetle (Phaedon cochleariae).
After 7 days, the efficacy in % is determined. 100% means that all the beetle larvae have been killed; 0% means that no beetle larvae have been killed.

[3] = system: southern root-knot nematode (Meloidogyne incognita); assay: Meloidogyne incognita test (sand, lettuce, acetone solvent, 14 days); format: in vivo; conditions: application rate 20 ppm, after 14 days
Procedure: (§3) Meloidogyne incognita Test
Solvent: 125.0 parts by weight of acetone
To produce an appropriate active ingredient formulation, 1 part by weight of active ingredient is mixed with the stated amount of solvent and the concentrate is diluted with water to the desired concentration.
Vessels are filled with sand, active ingredient solution, an egg/larvae suspension of the southern root-knot nematode (Meloidogyne incognita) and lettuce seeds. The lettuce seeds germinate and the plants develop. The galls develop on the roots
After 14 days, the nematicidal efficacy in % is determined by the formation of galls. 100% means that no galls were found; 0% means that the number of galls on the treated plants corresponds to the untreated control.

[4] = log P by reversed-phase HPLC analogously to OECD Guideline 117; format: physicochemical; conditions: for LogP[a] / chromatographic logP: [a] acidic range; for LogP[b]: [b] neutral range, pH 7.8, ammonium hydrogencarbonate/acetonitrile; for chromatographic logP: reversed-phase C18 HPLC column
Procedure, shortened: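 Retention on reversed-phase C18 HPLC (LC-MS), acidic runs at pH 2.7 with formic acid or trifluoroacetic acid/acetonitrile gradients, neutral runs at pH 7.8 with 0.001 molar ammonium hydrogencarbonate/acetonitrile. log P obtained by linear interpolation of retention times against unbranched alkan-2-ones (C3–C16) of known log P.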

[5] = system: greenhouse red spider mite (Tetranychus urticae); assay: Tetranychus urticae spray test, OP-resistant (bean plants); format: in vivo; conditions: application rate 20 ppm, after 7 days
Procedure: Tetranychus urticae—Spray Test, OP-Resistant
(§4) Solvent: 7 parts by weight of dimethylformamide
as §1
as §2, with “water. If the addition of ammonium salts or/and penetrants is required, these are each added in a concentration of 1000 ppm to the formulation solution.” for “water.”
Bean plants (Phaseolus vulgaris) heavily infested by all stages of the greenhouse red spider mite (Tetranychus urticae) are treated by spraying with the active ingredient formulation in the desired concentration.
After 7 days, the efficacy in % is determined. 100% means that all the spider mites have been killed; 0% means that none of the spider mites have been killed.

[6] = system: green peach aphid (Myzus persicae); assay: Myzus persicae spray test (Chinese cabbage leaf discs); format: in vivo; conditions: application rate 500 g/ha, after 6 days
Procedure: (§5) Myzus persicae—Spray Test
Solvent: 78 parts by weight of acetone • • 1.5 parts by weight of dimethylformamide
as §1, §2
Discs of Chinese cabbage leaves (Brassica pekinensis) infested by all stages of the green peach aphid (Myzus persicae) are sprayed with an active ingredient formulation of the desired concentration.
After 6 days, the efficacy in % is determined 100% means that all the aphids have been killed; 0% means that none of the aphids have been killed.

[7] = system: southern root-knot nematode (Meloidogyne incognita); assay: Meloidogyne incognita test (soil drench, lettuce, 21 days); format: in vivo; conditions: application rate 8 ppm, after 21 days
Procedure: as §3, §4
Emulsifier: 2.5 parts by weight of alkylaryl polyglycol ether
To produce an appropriate active ingredient formulation, 1 part by weight of active ingredient is mixed with the stated amounts of solvent and emulsifier, and the concentrate is diluted with water to the desired concentration, it being necessary to include the volume of soil which is drenched in the calculation. It should be noted that a concentration of 20 ppm of emulsifier in the soil is not exceeded. To produce further test concentrations, water is used for dilution.
Pots filled with soil (loamy sand) are watered with the active ingredient solution. An egg/larvae suspension of the southern root-knot nematode (Meloidogyne incognita) is added, lettuce seeds are scattered over the surface of the soil, and they are covered over with quartz sand. The lettuce seeds germinate and the plants develop. The galls develop on the roots
After 21 days, the nematicidal efficacy in % is determined by the formation of galls. 100% means that no galls have been found; 0% means that the number of galls on the treated plants corresponds to the untreated control.

[8] = system: engorged adult female cattle ticks (Boophilus microplus); assay: Boophilus microplus injection test; format: in vivo; conditions: application rate 20 μg/animal, assessed after 7 days
Procedure: Boophilus microplus—Injection Test
Solvent: dimethyl sulphoxide
To produce an appropriate active ingredient formulation, 10 mg of active ingredient are mixed with 0.5 ml of solvent and the concentrate is diluted with solvent to the desired concentration.
1 μl of the active ingredient solution is injected into the abdomen of 5 engorged adult female cattle ticks (Boophilus microplus). The animals are transferred into dishes and kept in a climate-controlled room.
The efficacy is assessed after 7 days by laying of fertile eggs. Eggs which are not visibly fertile are stored in a climate-controlled cabinet until the larvae hatch after about 42 days. An efficacy of 100% means that none of the ticks has laid any fertile eggs; 0% means that all the eggs are fertile.

[9] = system: adult cat fleas (Ctenocephalides felis); assay: Ctenocephalides felis in vitro contact test with adult cat fleas; format: in vivo; conditions: application rate 5 μg/cm^2 (=500 g/ha), after 48 h
Procedure: Ctenocephalides felis—In Vitro Contact Tests with Adult Cat Fleas
For the coating of the test tubes, 9 mg of active ingredient are first dissolved in 1 ml of acetone p.a. and then diluted to the desired concentration with acetone p.a. 250 μl of the solution are distributed homogeneously on the inner walls and base of a 25 ml test tube by turning and rocking on an orbital shaker (rocking rotation at 30 rpm for 2 h). With 900 ppm active ingredient solution and internal surface 44.7 cm^2, given homogeneous distribution, an area-based dose of 5 μg/cm^2 is achieved.
After the solvent has been evaporated off, the tubes are populated with 5-10 adult cat fleas (Ctenocephalides felis), sealed with a perforated plastic lid and incubated in a horizontal position at room temperature and ambient humidity. After 48 h, the efficacy is determined. To this end, the test tubes are stood upright and the fleas are knocked to the base of the tube. Fleas which remain motionless at the base or move in an uncoordinated manner are considered to be dead or moribund.
100% efficacy means that all the fleas were dead or moribund. 0% efficacy means that no fleas were harmed.

[10] = system: green peach aphid (Myzus persicae); assay: Myzus persicae spray test (bell pepper plants); format: in vivo; conditions: application rate 20 ppm, after 6 days
Procedure: as §5, §4, §1
as §2, with “water. If the addition of ammonium salts or/and penetrants is required, these are each added in a concentration of 1000 ppm to the formulation solution.” for “water.”
Bell pepper plants (Capsicum annuum) heavily infested by the green peach aphid (Myzus persicae) are treated by spraying with the active ingredient formulation in the desired concentration.
After 6 days, the kill in % is determined. 100% means that all the aphids have been killed; 0% means that no aphids have been killed.

[11] = pH 2.7, formic acid (or trifluoroacetic acid)/acetonitrile

| Compound | efficacy (spider mites killed) ([1]; application rate 500 g/ha) [%] | nematicidal efficacy (formation of galls) [3] [%] | LogP[a] [4, 11] | LogP[b] [4] | efficacy (spider mites killed) [5] [%] | further results |
| --- | --- | --- | --- | --- | --- | --- |
| Cc1cc(F)c(-n2ncc(=O)n(CC3CC3)c2=O)cc1[S+]([O-])CC(F)(F)F (racemic) [compound 27] | 100 | 100 | 2.72 | 2.65 |  | efficacy (beetle larvae killed) [2]: 100% |
| Cc1cc(F)c(-n2ncc(=O)n(CC#N)c2=O)cc1[S+]([O-])CC(F)(F)F (racemic) [compound 44] |  |  | 2.02 | 1.96 | 95 | efficacy (aphids killed) [6]: 90% |
| Cc1cc(F)c(-n2ncc(=O)n(Cc3ccccc3)c2=O)cc1[S+]([O-])CC(F)(F)F (racemic) [compound 45] |  |  | 3.00 | 2.9 | 90 |  |
| Cc1cc(F)c(-n2ncc(=O)n(Cc3ccc[n+]([O-])c3)c2=O)cc1[S+]([O-])CC(F)(F)F (racemic) [compound 48] |  |  | 1.51 | 1.45 |  | efficacy (aphids killed) [6]: 90% |
| Cc1cc(F)c(-n2ncc(=O)n(Cc3cccnc3)c2=O)cc1[S+]([O-])CC(F)(F)F (racemic) [compound 49] |  |  | 1.47 | 2.00 |  | efficacy (aphids killed) [6]: 90% |
| Cc1cc(F)c(-n2ccc(=O)n(CC(F)(F)F)c2=O)cc1[S+]([O-])CC(F)(F)F (racemic) [compound 60] |  | 100 | 2.31 | 2.34 | 100 | efficacy (beetle larvae killed) [2]: 100% |
| Cc1cc(C)c([S+]([O-])CC(F)(F)F)cc1-n1ncc(=O)n(CC(F)(F)F)c1=O (single isomer, unassigned) [compound 47] |  |  | 2.72 | 2.66 | 100 |  |
| Cc1cc(F)c(-n2ncc(=O)n(CC(F)(F)F)c2=O)cc1[S+]([O-])CC(F)(F)F (single isomer, unassigned) [compound 50] |  |  | 2.62 | 2.57 | 100 | nematicidal efficacy (formation of galls) [7]: 99% |
| Cc1cc(F)c(-n2ncc(=O)n(C)c2=O)cc1[S+]([O-])CC(F)(F)F (single isomer, unassigned; (+)) [Ex. No. 29, (+)-2-[2-fluoro-4-methyl-5-(2,2,2-trifluoroethylsulphinyl)phenyl]-4-methyl-1,2,4-triazine-3,5-dione] |  |  | 1.95 | 1.9 | 100 | efficacy (no fertile eggs laid) [8]: 100%; nematicidal efficacy (formation of galls) [7]: 100% |
| Cc1cc(F)c(-n2ncc(=O)n(C)c2=O)cc1[S+]([O-])CC(F)(F)F (stereo not shown) [Ex. No. 2, 2-{2-Fluoro-4-methyl-5-[(2,2,2-trifluoroethyl)sulphinyl]phenyl}-4-methyl-1,2,4-triazine-3,5(2H,4H)-dione] |  |  |  |  |  | efficacy (fleas dead or moribund) [9]: 100%; pest or weed control at 500 g/ha ([1]; Tetranychus urticae, foliar, 144 h, application rate 500 g/ha, read-out: efficacy (spider mites killed)): 90%; pest or weed control at 20 ppm ([3]; Meloidogyne incognita, 336 h, read-out: nematicidal efficacy (formation of galls)): 90%; efficacy (no fertile eggs laid) [8]: 100%; chromatographic logP ([4]; pH 2.7, running text, pH 2.7, read-out: log P[a]): 1.94; chromatographic logP ([4]; pH 2.7, table column, pH 2.7, formic acid (or trifluoroacetic acid)/acetonitrile, read-out: LogP[a]): 1.94 |
| Cc1cc(F)c(-n2ncc(=O)n(CC(F)(F)F)c2=O)cc1SCC(F)(F)F [compound 10] | 90 | 100 | 3.65 |  |  | efficacy (beetle larvae killed) [2]: 83%; efficacy (no fertile eggs laid) [8]: 100% |
| Cc1cc(F)c(-n2ncc(=O)n(CC3CC3)c2=O)cc1SCC(F)(F)F [compound 25] | 100 | 100 | 3.79 | 3.76 |  | efficacy (beetle larvae killed) [2]: 100% |
| Cn1c(=O)cnn(-c2ccc(Cl)c(SCC(F)(F)F)c2)c1=O [compound 31] |  |  | 3 | 2.91 |  | efficacy (kill of aphids) [10]: 97%; efficacy (spider mites killed) ([1]; application rate 100 g/ha): 100% |
| Cn1c(=O)cnn(-c2ccc(Cl)c(SCC(F)(F)F)c2)c1=O [compound 32] | 100 |  | 2.18 | 2.16 |  | efficacy (aphids killed) [6]: 90% |
| Cc1cc(F)c(-n2ncc(=O)n(Cc3cccnc3)c2=O)cc1SCC(F)(F)F [compound 43] | 90 |  | 2.36 | 2.87 |  | efficacy (aphids killed) [6]: 90% |
| C#CCn1c(=O)ccn(-c2cc(SCC(F)(F)F)c(C)cc2F)c1=O [compound 79] | 90 | 100 | 2.78 | 2.81 |  | efficacy (beetle larvae killed) [2]: 100% |
| COCn1c(=O)ccn(-c2cc(SCC(F)(F)F)c(C)cc2F)c1=O [compound 80] |  | 100 | 2.62 | 2.66 | 100 |  |
| Cc1cc(F)c(-n2ccc(=O)n(CC(F)F)c2=O)cc1SCC(F)(F)F [compound 82] |  | 100 | 2.99 | 3.06 | 100 |  |
